Experimental data as given in the NIST ThermoML archive (doi:10.1016/j.fluid.2005.02.009).
± gives the expanded uncertainty stated by the source.

Details: Liquid

CCOCCO [2-ethoxyethan-1-ol]
viscosity [mPa·s]
Details	293.15 K	303.15 K	313.15 K	323.15 K	333.15 K	343.15 K	353.15 K
100 kPa	2.073 ± 0.049	1.663 ± 0.039	1.346 ± 0.032	1.117 ± 0.026	0.941 ± 0.022	0.804 ± 0.019	0.695 ± 0.017
20000 kPa	2.417 ± 0.12	1.922 ± 0.095	1.599 ± 0.079	1.32 ± 0.065	1.081 ± 0.054	0.939 ± 0.046	0.829 ± 0.041
40000 kPa	2.776 ± 0.14	2.21 ± 0.11	1.834 ± 0.091	1.529 ± 0.076	1.236 ± 0.061	1.078 ± 0.053	0.953 ± 0.047
60000 kPa	3.145 ± 0.16	2.512 ± 0.12	2.071 ± 0.1	1.743 ± 0.086	1.408 ± 0.07	1.221 ± 0.06	1.068 ± 0.053
80000 kPa	3.509 ± 0.17	2.816 ± 0.14	2.308 ± 0.11	1.931 ± 0.096	1.592 ± 0.079	1.362 ± 0.067	1.172 ± 0.058
100000 kPa	3.859 ± 0.19	3.115 ± 0.15	2.543 ± 0.13	2.13 ± 0.11	1.787 ± 0.088	1.5 ± 0.074	1.265 ± 0.063

CC(C)OCCO [2-isopropoxyethanol]
viscosity [mPa·s]
Details	293.15 K	303.15 K	313.15 K	323.15 K	333.15 K	343.15 K	353.15 K
100 kPa	2.38 ± 0.056	1.87 ± 0.044	1.506 ± 0.036	1.228 ± 0.029	1.024 ± 0.024	0.864 ± 0.021	0.739 ± 0.018
20000 kPa	2.939 ± 0.14	2.284 ± 0.11	1.861 ± 0.092	1.485 ± 0.074	1.25 ± 0.062	1.046 ± 0.052	0.927 ± 0.046
40000 kPa	3.493 ± 0.17	2.691 ± 0.13	2.186 ± 0.11	1.731 ± 0.086	1.48 ± 0.073	1.236 ± 0.061	1.09 ± 0.054
60000 kPa	4.073 ± 0.2	3.123 ± 0.15	2.512 ± 0.12	2.002 ± 0.099	1.72 ± 0.085	1.445 ± 0.071	1.236 ± 0.061
80000 kPa	4.661 ± 0.23	3.566 ± 0.18	2.838 ± 0.14	2.296 ± 0.11	1.966 ± 0.097	1.669 ± 0.083	1.368 ± 0.068
100000 kPa	5.241 ± 0.26	4.008 ± 0.2	3.162 ± 0.16	2.611 ± 0.13	2.212 ± 0.11	1.903 ± 0.094	1.536 ± 0.076

COCCO [2-methoxyethan-1-ol]
viscosity [mPa·s]
Details	293.15 K	303.15 K	313.15 K	323.15 K	333.15 K	343.15 K	353.15 K
100 kPa	1.707 ± 0.04	1.398 ± 0.033	1.162 ± 0.027	0.984 ± 0.023	0.843 ± 0.02	0.731 ± 0.017	0.635 ± 0.015
20000 kPa	1.948 ± 0.096	1.583 ± 0.078	1.339 ± 0.066	1.135 ± 0.056	0.965 ± 0.048	0.852 ± 0.042	0.738 ± 0.036
40000 kPa	2.186 ± 0.11	1.777 ± 0.088	1.489 ± 0.073	1.268 ± 0.063	1.084 ± 0.053	0.958 ± 0.047	0.834 ± 0.041
60000 kPa	2.426 ± 0.12	1.977 ± 0.098	1.647 ± 0.081	1.405 ± 0.069	1.21 ± 0.06	1.058 ± 0.052	0.924 ± 0.046
80000 kPa	2.659 ± 0.13	2.176 ± 0.11	1.814 ± 0.089	1.544 ± 0.076	1.338 ± 0.066	1.149 ± 0.057	1.006 ± 0.05
100000 kPa	2.878 ± 0.14	2.367 ± 0.12	1.988 ± 0.098	1.685 ± 0.083	1.466 ± 0.072	1.231 ± 0.061	1.08 ± 0.053
